Reference: patent US20220177446A1, “ALKYNE COMPOUNDS AS IRAK INHIBITORS, PREPARATION METHODS AND MEDICINAL USES THEREOF” (Eternity Bioscience Inc., priority 2020, published 2022)
Read-outs that look alike come from different tables or passages of the source.

Experiments:
[1] = target: T1, full length human IRAK4 protein (Homo sapiens, UniProt Q9NWZ3); test: IRAK4 Biochemical Assay (Promega ADP-Glo IRAK4 Kinase Enzyme System); conditions: 3 nM enzyme, 250 μM ATP; for IC50: 2 μM MBP, 60 min at room temperature; for IRAK4 Biochemical Assay Max Inhibition (%): maximum inhibition
T1 construct: Purified full length human IRAK4 protein; purchased Signal Chem I12-10G-125
T1 sequence (Q9NWZ3 1-460): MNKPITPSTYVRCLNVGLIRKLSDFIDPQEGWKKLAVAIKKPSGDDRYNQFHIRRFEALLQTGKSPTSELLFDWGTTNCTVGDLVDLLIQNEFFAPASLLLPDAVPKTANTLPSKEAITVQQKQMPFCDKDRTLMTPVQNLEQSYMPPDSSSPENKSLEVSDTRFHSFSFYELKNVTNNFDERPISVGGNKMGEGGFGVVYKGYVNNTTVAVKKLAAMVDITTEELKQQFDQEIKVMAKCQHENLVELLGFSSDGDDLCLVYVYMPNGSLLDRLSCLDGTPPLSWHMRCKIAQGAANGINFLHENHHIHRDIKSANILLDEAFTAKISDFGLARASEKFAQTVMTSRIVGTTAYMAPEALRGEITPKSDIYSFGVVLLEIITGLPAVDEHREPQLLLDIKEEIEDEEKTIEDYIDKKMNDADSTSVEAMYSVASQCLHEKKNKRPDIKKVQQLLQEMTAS
Experimental: For the routine compound screening, an IRAK4 kinase assay was performed as follows using Promega ADP-Glo IRAK4 Kinase Enzyme System (Promega, Cat #2198-AD). Purified full length human IRAK4 protein (Signal Chem; Cat #I12-10G-125) was diluted to a concentration 6 nM in assay buffer (25 mM MOPS, pH 7.2, 12.5 mM β-glycerol-phosphate, 25 mM MgCl2, 5 mM EGTA, 2 mM EDTA, 0.0025% Brij-35, add 0.25 mM DTT to Kinase Assay Buffer prior to use) containing IRAK4 inhibitor at 2× the final concentration in 0.4% DMSO. The reaction was performed in PerkinElmer Proxiplate-384 plus white plate (Fisher Scientific, Cat #50-905-2761) and started by the addition of an equal volume of the assay buffer containing 4 μM native swine myelin basic protein (MBP) and 500 μM ATP to achieve a final concentration of 3 nM enzyme, 2 μM MBP, 250 μM ATP, 1× compound, and 0.2% DMSO. The kinase reaction was allowed to run for 60 min at room temperature (25-27° C.), then 5 μL of ADP-Glo was added to the reaction in each well followed by 40 minutes-incubation at RT. To detect converted […], 10 μL Detection Buffer was added into each well and Incubate at RT in dark for 30 minutes. Finally, luminescence was read using Tecan with 1000 ms of integration time. The luminescent signal positively correlates with ADP amount and kinase activity. Data was analyzed by GraphPad Prism and IC50 was calculated using function log(inhibitor) vs. response—Variable slope (four parameters). Percentage of inhibition was calculated as below:
(§1) % inhibition=(1−(Reading(Sample)−Reading(Negative Control))/(Reading(Positive Control)−Reading(Negative Control)))×100%
The 0% inhibition value comes from the Reading of Positive Control wells having 0 nM compound. The 100% inhibition value comes from the Reading of Negative Control wells having no IRAK4 kinase.

IRAK4 = target: T2, IRAK4 (Homo sapiens, UniProt Q9NWZ3); test: IRAK4 Human PBMC TNFα Cell Based Assay (AlphaLISA); conditions: TNFα measured
T2 construct: host or cells: human peripheral blood mononuclear cells (PBMCs)
T2 sequence (Q9NWZ3 1-460): T1 sequence (Q9NWZ3 1-460)
Experimental: In this assay, serially diluted compounds were incubated with 1×10^4 human peripheral blood mononuclear cells (PBMCs) from STEMCELL (Cat #70025.1) per well of 384-well plate (Fisher Scientific; 50-905-2761) and cultured with TexMACS medium (Miltenyi, Cat #130-097-196), stimulated by R848 (0.5 μM) or IL-1β (10 ng/ml). Plates were covered with lids and incubated for 4 h (R848, Fisher Scientific, Cat #NC9801605) or 24 h (IL-1β, Fisher Scientific, Cat #ENRIL1BI) at 37° C. in a humidified tissue-culture incubator. After a brief centrifugation at 1000 rpm for 5 minutes, 5 μl of culture medium was used for the measurement of the TNFα amount using TNFα (human) AlphaLISA Detection Kit (PerkinElmer, Cat #AL208C) according to manufacturer's protocol. A biotinylated anti-TNFα antibody binds to the Streptavidin-coated Donor beads while another anti-TNFα antibody is conjugated to AlphaLISA Acceptor beads. In the presence of the TNFα, the beads come into close proximity. The excitation of the Donor beads causes the release of singlet oxygen molecules that triggers a cascade of energy transfer in the Acceptor beads, resulting in a sharp peak of light emission at 615 nm. AlphaLISA assay plates were read using PHERAstar. Percentage of inhibition was calculated as below:
as §1
The 0% inhibition value comes from the Reading of Positive Control wells having 0 nM compound. The 100% inhibition value comes from the Reading of Negative Control wells having no R848 or IL-1β.

[2] = human PBMCs stimulated by IL-1β (10 ng/ml), 24 h, read-out: IRAK4 PBMC AlphaLISA IL-1β (IC50)
[3] = human PBMCs stimulated by R848 (0.5 μM), 4 h, read-out: IRAK4 PBMC AlphaLISA R848 (IC50)

Row | Structure (SMILES) | IC50 [1] | IRAK4 Biochemical Assay Max Inhibition (%) [1] | IC50 (IRAK4; [2]) | IC50 (IRAK4; [3])
1 | CC[C@@H]1[C@H](F)C(=O)N[C@@H]1COc1ncc(C#CC(C)(C)NC(=O)OC(C)(C)C)c2cc(C(N)=O)c(OC)cc12 [Example 1, tert-butyl (4-(6-carbamoyl-1-(((2S,3S,4S)-3-ethyl-4-fluoro-5-oxopyrrolidin-2-yl)methoxy)-7-methoxyisoquinolin-4-yl)-2-methylbut-3-yn-2-yl)carbamate] | 8.4 nM | 100.0% | 18.1 nM | 16 nM
2 | CC[C@@H]1[C@H](F)C(=O)N[C@@H]1COc1ncc(C#CC(C)(C)N)c2cc(C(N)=O)c(OC)cc12 [Example 2, 4-(3-amino-3-methylbut-1-yn-1-yl)-1-(((2S,3S,4S)-3-ethyl-4-fluoro-5-oxopyrrolidin-2-yl)methoxy)-7-methoxyisoquinoline-6-carboxamide] | 63 nM | 100.0% | 25 nM | 16 nM
3 | CC[C@@H]1[C@H](F)C(=O)N[C@@H]1COc1ncc(C#CC(C)(C)O)c2cc(C(N)=O)c(OC)cc12 [Example 3, 1-(((2S,3S,4S)-3-ethyl-4-fluoro-5-oxopyrrolidin-2-yl)methoxy)-4-(3-hydroxyl-3-methylbut-1-yn-1-yl)-7-methoxyisoquinoline-6-carboxamide] | 17 nM | 100.0% | 4.7 nM | 2.7 nM
4 | COc1cc2c(OC[C@@H]3CCC(=O)N3)ncc(C#Cc3ccc(C)cc3)c2cc1C(N)=O [Example 7, (S)-7-methoxy-1-((5-oxopyrrolidin-2-yl)methoxy)-4-(p-tolylethynyl)isoquinoline-6-carboxamide] | – | – | 89 nM | 150 nM
5 | COc1cc2c(OC[C@@H]3CCC(=O)N3)ncc(C#CCN(C)C)c2cc1C(N)=O [Example 8, (S)-4-(3-(dimethylamino)prop-1-yn-1-yl)-7-methoxy-1-((5-oxopyrrolidin-2-yl)methoxy)isoquinoline-6-carboxamide] | 7.5 nM | 97.0% | 128 nM | 175 nM
6 | COCC#Cc1cnc(OC[C@@H]2CCC(=O)N2)c2cc(OC)c(C(N)=O)cc12 [Example 9, (S)-7-methoxy-4-(3-methoxyprop-1-yn-1-yl)-1-((5-oxopyrrolidin-2-yl)methoxy)isoquinoline-6-carboxamide] | 14 nM | 100.0% | 110 nM | 140 nM
7 | CC[C@@H]1[C@H](F)C(=O)N[C@@H]1COc1ncc(C#CC(=O)N(C)C)c2cc(C(N)=O)c(OC)cc12 [Example 11, 4-(3-(dimethylamino)-3-oxoprop-1-yn-1-yl)-1-(((2S,3S,4S)-3-ethyl-4-fluoro-5-oxopyrrolidin-2-yl)methoxy)-7-methoxyisoquinoline-6-carboxamide] | 10 nM | 95.0% | 1 nM | 0.7 nM
8 | CC[C@@H]1[C@H](F)C(=O)N[C@@H]1COc1ccc(C#CCN(C)C)c2cc(C(N)=O)c(OC)cc12 [Example 15, 8-(3-(dimethylamino)prop-1-yn-1-yl)-5-(((2S,3S,4S)-3-ethyl-4-fluoro-5-oxopyrrolidin-2-yl)methoxy)-3-methoxy-2-naphthamide] | 12 nM | 101.0% | 1.3 nM | 1.7 nM

Second part, the compound after the results:

Row | IC50 [1] | IRAK4 Biochemical Assay Max Inhibition (%) [1] | IC50 (IRAK4; [2]) | IC50 (IRAK4; [3]) | Structure (SMILES)
9 | 5.7 nM | 98.0% | – | – | CC[C@@H]1[C@H](F)C(=O)N[C@@H]1COc1ncc(C#CC(=O)O)c2cc(C(N)=O)c(OC)cc12 [Example 4, 3-(6-carbamoyl-1-(((2S,3S,4S)-3-ethyl-4-fluoro-5-oxopyrrolidin-2-yl)methoxy)-7-methoxyisoquinolin-4-yl)propiolic acid]
10 | 68 nM | 100.0% | – | – | CC[C@@H]1[C@H](F)C(=O)N[C@@H]1COc1ncc(C#Cc2nn[nH]n2)c2cc(C(N)=O)c(OC)cc12 [Example 10, 4-((2H-tetrazol-5-yl)ethynyl)-1-(((2S,3S,4S)-3-ethyl-4-fluoro-5-oxopyrrolidin-2-yl)methoxy)-7-methoxyisoquinoline-6-carboxamide]
11 | 69 nM | 100.0% | 0.8 nM | 1.4 nM | CC[C@@H]1[C@H](F)C(=O)N[C@@H]1COc1ncc(C#Cc2cncnc2)c2cc(C(N)=O)c(OC)cc12 [Example 12, 1-(((2S,3S,4S)-3-ethyl-4-fluoro-5-oxopyrrolidin-2-yl)methoxy)-7-methoxy-4-(pyrimidin-5-ylethynyl)isoquinoline-6-carboxamide]
12 | 18 nM | 95.0% | 1.3 nM | 1.6 nM | CC[C@@H]1[C@H](F)C(=O)N[C@@H]1COc1ncc(C#Cc2cnccn2)c2cc(C(N)=O)c(OC)cc12 [Example 13, 1-(((2S,3S,4S)-3-ethyl-4-fluoro-5-oxopyrrolidin-2-yl)methoxy)-7-methoxy-4-(pyrazin-2-ylethynyl)isoquinoline-6-carboxamide]
13 | 29 nM | 100.0% | 1.3 nM | 1.6 nM | CC[C@@H]1[C@H](F)C(=O)N[C@@H]1COc1ncc(C#Cc2cccnc2)c2cc(C(N)=O)c(OC)cc12 [Example 14, 1-(((2S,3S,4S)-3-ethyl-4-fluoro-5-oxopyrrolidin-2-yl)methoxy)-7-methoxy-4-(pyridin-3-ylethynyl)isoquinoline-6-carboxamide]
14 | 19 nM | 99.0% | 8.7 nM | 1.7 nM | CC[C@@H]1[C@H](F)C(=O)N[C@@H]1COc1ncc(C#Cc2ncccn2)c2cc(C(N)=O)c(OC)cc12 [Example 16, 1-(((2S,3S,4S)-3-ethyl-4-fluoro-5-oxopyrrolidin-2-yl)methoxy)-7-methoxy-4-(pyrimidin-2-ylethynyl)isoquinoline-6-carboxamide]
15 | 32 nM | 100.0% | 1.5 nM | 2.4 nM | CC[C@@H]1[C@H](F)C(=O)N[C@@H]1COc1ncc(C#Cc2cnn(C)c2)c2cc(C(N)=O)c(OC)cc12 [Example 17, 1-(((2S,3S,4S)-3-ethyl-4-fluoro-5-oxopyrrolidin-2-yl)methoxy)-7-methoxy-4-((1-methyl-1H-pyrazol-4-yl)ethynyl)isoquinoline-6-carboxamide]
16 | 27.5 nM | 95.0% | 1.7 nM | 2.5 nM | CC[C@@H]1[C@H](F)C(=O)N[C@@H]1COc1ncc(C#C[C@H](C)O)c2cc(C(N)=O)c(OC)cc12 [Example 18, 1-(((2S,3S,4S)-3-ethyl-4-fluoro-5-oxopyrrolidin-2-yl)methoxy)-4-((S)-3-hydroxybut-1-yn-1-yl)-7-methoxyisoquinoline-6-carboxamide]
